Legend:
Format in all cases: in vivo
[1] = tested on: Cotton Aphid (aphis gossypii, Mixed Life Stages); experiment: Cotton aphid (aphis gossypii, mixed life stages), cotyledon dip test; conditions: 120 h, mortality counts after 5 days, in comparison with untreated controls
Outline: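 Cotton seedlings at the cotyledon stage were infested with mixed-stage aphids transferred overnight from infested leaves, then dipped in compound solution (50:50 acetone:water with 100 ppm surfactant) and dried. Mortality was counted after 5 days.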

[2] = tested on: Vetch Aphid (Megoura viciae); experiment: Vetch aphid (Megoura viciae), bean leaf disk microtiterplate test; conditions: foliar, 144 h, concentration of the test solution 2500 mg/L, 6 days
Outline: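 Bean leaf disks on 0.8% agar with 2.5 ppm OPUS™ were sprayed with compound in 1:3 DMSO:water, then infested with 5–8 adult aphids. Kept 6 days at 23±1 °C, 50±5% RH under fluorescent light. Mortality and fecundity were scored visually from vital, reproduced aphids.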

[3] = tested on: Cowpea Aphid (aphis craccivora); experiment: Cowpea aphid (aphis craccivora), spray on potted cowpea plants; conditions: population reduction assessed after 24, 72 and 120 hours, in comparison with untreated controls
Method: The active compounds were formulated in 50:50 (vol:vol) acetone:water. The test solution was prepared at the day of use.
Potted cowpea plants colonized with 100-150 aphids of various stages were sprayed after the pest population had been recorded. Population reduction was assessed after 24, 72, and 120 hours.

[4] = tested on: Green Peach Aphid (Myzus persicae, Mixed Life Stages); experiment: Green peach aphid (Myzus persicae, mixed life stages), pepper leaf dip test; conditions: foliar, 120 h, after 5 days, in comparison with untreated controls
Outline: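 Pepper plants at the 2nd leaf-pair stage were infested with about 40 mixed-stage aphids, then leaf-dipped in graded concentrations of compound in 50:50 acetone:water with 100 ppm surfactant. Plants were held at about 25 °C, 20–40% RH, under 24 h light. Mortality relative to check plants was scored after 5 days.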

[5] = tested on: Boll Weevil (Anthonomus grandis); experiment: Boll weevil (Anthonomus grandis), insect diet microtiter plate test; conditions: 120 h, concentration of the test solution 2500 mg/L, egg and larval mortality after 5 days
Method: The compounds were formulated in 75:25 (vol:vol) water:DMSO.
For evaluating control of boll weevil (Anthonomus grandis) the test unit consisted of 24-well-microtiter plates containing an insect diet and 20-30 A. grandis eggs. Different concentrations of formulated compounds were sprayed onto the insect diet at 20 μl, using a custom built micro atomizer, at two replications. After application, the microtiter plates were incubated at 23±1° C. and 50±5% relative humidity for 5 days. Egg and larval mortality was then visually assessed.

[6] = tested on: Bean Aphid (Aphis fabae); experiment: Bean aphid (Aphis fabae), nasturtium plant dip test; conditions: 72 h, after 3 days, in comparison with untreated controls
Source text: (§1) The active compounds were formulated in 50:50 (vol:vol) acetone:water and 100 ppm Kinetica™ surfactant.
Nasturtium plants grown in Metro mix in the 1st leaf-pair stage (variety ‘Mixed Jewel’) were infested with approximately 2-30 laboratory-reared aphids by placing infested cut plants on top of the test plants. The cut plants were removed after 24 hr. Each plant was dipped into the test solution to provide complete coverage of the foliage, stem, protruding seed surface and surrounding cube surface and allowed to dry in the fume hood. The treated plants were kept at about 25° C. with continuous fluorescent light. Aphid mortality is determined after 3 days.

[7] = tested on: Brown Planthopper (nilaparvata lugens); experiment: Brown planthopper (nilaparvata lugens), rice seedling spray test; conditions: after 72 hours, in comparison with untreated controls
Method: The active compounds were formulated as a 50:50 (vol:vol) acetone:water solution. Surfactant (Alkamuls EL 620) was added at the rate of 0.1% (vol/vol).
Rice seedlings were cleaned and washed 24 h before spraying. Potted rice seedlings were sprayed with 5 ml test solution, air dried, placed in cages and inoculated with 10 adults. Treated rice plants were kept at 28-29° C. and relative humidity of 50-60%. Percent mortality was recorded after 72 hours.

[8] = tested on: Silverleaf Whitefly (bemisia argentifolii, adult); experiment: Silverleaf whitefly (bemisia argentifolii, adult), cotton cotyledon dip test; conditions: 72 h, 3 days after treatment, in comparison with untreated controls
Method: as §1
Selected cotton plants were grown to the cotyledon state (one plant per pot). The cotyledons were dipped into the test solution to provide complete coverage of the foliage and placed in a well-vented area to dry. Each pot with treated seedling was placed in a plastic cup and 10 to 12 whitefly adults (approximately 3-5 day old) were introduced. The insects were collected using an aspirator and an 0.6 cm, non-toxic Tygon® tubing (R-3603) connected to a barrier pipette tip. The tip, containing the collected insects, was then gently inserted into the soil containing the treated plant, allowing insects to crawl out of the tip to reach the foliage for feeding. The cups were covered with a reusable screened lid (150 micron mesh polyester screen PeCap from Tetko Inc). Test plants were maintained in the holding room at about 25° C. and 20-40% relative humidity for 3 days avoiding direct exposure to the fluorescent light (24 hour photoperiod) to prevent trapping of heat inside the cup. Mortality was assessed 3 days after treatment of the plants.

Row | SMILES | mortality at 300 ppm [1] | mortality at 2500 µg/mL [2] | mortality at 300 ppm [3] | mortality at 300 ppm [4] | mortality at 2500 µg/mL [5] | mortality at 10 ppm [6] | mortality at 300 ppm [7] | mortality at 300 ppm [8]
1 | O=C(Nc1cccnc1)c1cnn(-c2ccc(F)cc2)c1C(F)F [Compound 94] | ≥ 75% | ≥ 80% | ≥ 75% | ≥ 50% | 100% | ≥ 90% |  | 
2 | CN(C(=O)c1cn(C(F)F)nc1C(F)(F)F)c1cccnc1 [Compound 195] | ≥ 75% | ≥ 80% | ≥ 75% | ≥ 50% |  |  | ≥ 50% | 
3 | Cc1c(C(=O)Nc2cccnc2)cnn1-c1nccs1 [Compound 116] | ≥ 75% | ≥ 80% | ≥ 75% | ≥ 50% | 100% | ≥ 90% |  | 
4 | CN(C(=O)c1cn(C)nc1C(F)(F)F)c1cccnc1 [Compound 29, 1-Methyl-3-trifluoromethyl-1H-pyrazole-4-carboxylic acid methyl-pyridin-3-yl-amide] | ≥ 75% | ≥ 80% | ≥ 75% | ≥ 50% |  | ≥ 90% |  | ≥ 50%

Reference: US8642597B2, “Pyrazole compounds for controlling invertebrate pests” (BASF SE, priority 2007, dated 2014)
